Source: PubChem BioAssay (NCI)
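Growth conditions: 96-well plates. Treatment: test compound, 48 hours, 5 concentrations. Analysis: linear interpolation between bracketing concentrations; unreached endpoints set to highest concentration. TGI is the concentration that stops growth completely.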

How the values were obtained:
Experiment in all cases: NCI anticancer screen, dose series, 48 h
[1] = test system: A549 NSCLC
[2] = test system: BT-549 breast
[3] = test system: EKVX NSCLC
[4] = test system: HCT-15 colon
[5] = test system: HS 578T breast
[6] = test system: LOX IMVI melanoma
[7] = test system: MDA-MB-231 breast
[8] = test system: NCI-H226 lung
[9] = test system: NCI/ADR-RES ovarian
[10] = test system: OVCAR-5 ovarian
[11] = test system: SF-295 CNS
[12] = test system: SF-539 CNS
[13] = test system: SN12C renal
[14] = test system: TK-10 renal
[15] = test system: UACC-257 melanoma
[16] = test system: UACC-62 melanoma

SMILES | TGI [1] [µM] | TGI [2] [µM] | TGI [3] [µM] | TGI [4] [µM] | TGI [5] [µM] | TGI [6] [µM] | TGI [7] [µM] | TGI [8] [µM] | TGI [9] [µM] | TGI [10] [µM] | TGI [11] [µM] | TGI [12] [µM] | TGI [13] [µM] | TGI [14] [µM] | TGI [15] [µM] | TGI [16] [µM]
Cc1cccc2c(N)c3cccc(C(=O)NCC[N+](C)(C)Cc4ccccc4[N+](=O)[O-])c3nc12 | > 54.5 | > 39 | > 100 | > 100 | > 31.2 | > 100 | > 55.6 | > 100 | > 37.1 | 60.2 | > 50.1 | > 32.5 | > 39.9 | > 20 | > 70.7 | > 19.7
COC(=O)CN(CC(=O)NCCNC(=O)OC(C)(C)C)C1CCCCC1N(CC(=O)OC)CC(=O)OC (centres undefined) | > 100 | > 100 | > 100 | > 100 | > 100 | > 100 | > 100 | > 100 | > 100 | > 100 | > 100 | > 100 | > 100 | > 100 | > 100 | > 100
Cc1ccc(S(=O)(=O)N(CCN)c2cc3c4c(c2)Oc2cccc5c2C4c2c(cccc2O3)O5)cc1 | > 100 | > 100 | 29 | > 100 | 38.2 | 73.4 | 40.9 | 24.8 | 22.5 | 62.1 | 54.5 | 50 | > 100 | > 100 | 98.4 | > 100
NC1CCN(c2nc3ccccc3c3c2CCCC3)CC1 | 23.5 | 25.9 | 21.4 | 17.7 | > 100 | 14.2 | 12.8 | 24.3 | 28.8 | 19 | 26.4 | 11.8 | 21.5 | 23.2 | 4.31 | 3.8
Cc1cc(C)n(-c2nc(-n3nc(C)cc3C)nc(-n3nc(C)cc3C)n2)n1 | > 100 | > 100 | > 100 | > 100 | > 100 | > 100 | > 100 | > 100 | > 100 | > 100 | > 100 | > 100 | > 100 | 86.5 | > 100 | > 100
CCOC(=O)C1=C(C(=O)OCC)SC2(S1)C(C(=O)OCC)=C(C(=O)OCC)Sc1c2ssc1=O | 5.38 | 4.51 | 5.78 | 2.72 | 5.41 | 1.42 | 3.88 | 42.2 | 7.64 | 12.4 | 28.8 | 2.4 | 2.48 | 3.16 | 3.1 | 3.68
CCOC(=O)c1cc(=O)c2cccc3c2n1CCS3 | > 100 | > 100 | > 100 | > 100 | > 100 | > 100 | > 100 | > 100 | > 100 | > 100 | > 100 | > 100 | > 100 | > 100 | > 100 | > 100
CC(=O)C1C(=O)C(=O)N(c2ccc([N+](=O)[O-])cc2[N+](=O)[O-])C1=O (centres undefined) | > 100 | > 100 | > 100 | > 100 | > 100 | > 100 | > 100 | > 100 | > 100 | > 100 | > 100 | > 100 | > 100 | > 100 | > 100 | > 100
O=C1N[C@H]2C(=O)c3c(Br)sc(Br)c3[C@H]2O1 | 40.4 | 28.3 | 13 | 4 | 58.6 | 11.4 | 22.4 | 34.6 | 39 | 34.3 | 37 | 32.1 | 11.4 | 41 | 21.7 | 26.7
